Consider 16 molecules from patent publication US8017602B2, “N-(2-(2-(5-hydroxy-3-oxo-3,4-dihydro-2H-benzo[b][1,4]oxazin-8-yl)ethylamino)ethyl)-3-(phenethoxy)propanamide derivatives, processes for their preparation, pharmaceutical compositions containing them and their use in therapy” (AstraZeneca AB, priority 2008, dated 2011).

For test [1], the target named is T1, recombinant human adrenergic beta 1 receptors (Homo sapiens, UniProt P08588).
T1 construct: purchased Euroscreen
Nature of the test: Adrenergic β1 selectivity binding assay ([125I]-Iodocyanopindolol). Particulars: inhibition of [125I]-Iodocyanopindolol binding, human β1 membranes; read-out: β1 bind p IC50 (converted). How it is done:
Membranes containing recombinant human adrenergic beta 1 receptors were obtained from Euroscreen. These were diluted in Assay Buffer (50 mM HEPES, 1 mM EDTA, 120 mM NaCl, 0.1% gelatin, pH 7.4) to provide a final concentration of membranes that gave a clear window between maximum and minimum specific binding.
Assays were performed in U-bottomed 96-well polypropylene plates. 10 μL [^125I]-Iodocyanopindolol (0.036 nM final concentration) and 10 μL of test compound (10× final concentration) were added to each test well. For each assay plate 8 replicates were obtained for [^125I]-Iodocyanopindolol binding in the presence of 10 μl vehicle (10% (v/v) DMSO in Assay Buffer; defining maximum binding) or 10 μl Propranolol (10 μM final concentration; defining non-specific binding (NSB)). Membranes were then added to achieve a final volume of 100 μL. The plates were incubated for 2 h at room temperature and then filtered onto PEI coated GF/B filter plates, pre-soaked for 1 h in Assay Buffer, using a 96-well plate Tomtec cell harvester. Five washes with 250 μL wash buffer (50 mM HEPES, 1 mM EDTA, 120 mM NaCl, pH 7.4) were performed at 4° C. to remove unbound radioactivity. The plates were dried then sealed from underneath using Packard plate sealers and MicroScint-O (50 μl) was added to each well. The plates were sealed (TopSeal A) and filter-bound radioactivity was measured with a scintillation counter (TopCount, Packard BioScience) using a 3-minute counting protocol.
Total specific binding (B0) was determined by subtracting the mean NSB from the mean maximum binding. NSB values were also subtracted from values from all other wells. […] Data was fitted to a four parameter logistic equation to determine the compound potency, which was expressed as pIC50 (negative log molar concentration inducing 50% inhibition of [^125I]-Iodocyanopindolol binding).

The target in test [2] is T2, recombinant human Dopamine Subtype D2s receptors (Homo sapiens, UniProt P14416).
T2 construct: purchased Perkin Elmer
T2 sequence (P14416 1-414 isoform P14416-2): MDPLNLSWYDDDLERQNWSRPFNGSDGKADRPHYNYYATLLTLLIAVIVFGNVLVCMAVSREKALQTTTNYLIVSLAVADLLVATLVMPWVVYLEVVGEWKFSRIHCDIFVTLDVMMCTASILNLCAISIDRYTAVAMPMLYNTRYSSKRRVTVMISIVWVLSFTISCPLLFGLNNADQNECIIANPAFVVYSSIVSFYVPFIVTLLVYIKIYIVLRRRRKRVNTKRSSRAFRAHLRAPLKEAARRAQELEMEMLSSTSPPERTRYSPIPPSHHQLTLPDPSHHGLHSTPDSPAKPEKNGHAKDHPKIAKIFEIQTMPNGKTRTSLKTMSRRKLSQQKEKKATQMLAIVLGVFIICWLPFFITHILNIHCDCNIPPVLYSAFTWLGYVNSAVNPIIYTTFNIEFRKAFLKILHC
Nature of the test: Dopamine D2 selectivity binding assay ([3H]-spiperone). As to conditions: inhibition of [3H]-spiperone binding, human D2s membranes; read-out: D2 bind pIC50 (converted). On the procedure: Membranes containing recombinant human Dopamine Subtype D2s receptors were obtained from Perkin Elmer. These were diluted in Assay Buffer (50 mM HEPES, 1 mM EDTA, 120 mM NaCl, 0.1% gelatin, pH 7.4) to provide a final concentration of membranes that gave a clear window between maximum and minimum specific binding.
Assays were performed in U-bottomed 96-well polypropylene plates. 30 μL [^3H]-spiperone (0.16 nM final concentration) and 30 μl of test compound (10× final concentration) were added to each test well. For each assay plate 8 replicates were obtained for [^3H]-spiperone binding in the presence of 30 μL vehicle (10% (v/v) DMSO in Assay Buffer; defining maximum binding) or 30 μl Haloperidol (10 μM final concentration; defining non-specific binding (NSB)). Membranes were then added to achieve a final volume of 300 μL. The plates were incubated for 2 h at room temperature and then filtered onto PEI coated GF/B filter plates, pre-soaked for 1 h in Assay Buffer, using a 96-well plate Tomtec cell harvester. Five washes with 250 μl wash buffer (50 mM HEPES, 1 mM EDTA, 120 mM NaCl, pH 7.4) were performed at 4° C. to remove unbound radioactivity. The plates were dried then sealed from underneath using Packard plate sealers and MicroScint-O (50 μl) was added to each well. The plates were sealed (TopSeal A) and filter-bound radioactivity was measured with a scintillation counter (TopCount, Packard BioScience) using a 3-minute counting protocol.
Total specific binding (B0) was determined by subtracting the mean NSB from the mean maximum binding. NSB values were also subtracted from values from all other wells. […] Data was fitted to a four parameter logistic equation to determine the compound potency, which was expressed as pIC50 (negative log molar concentration inducing 50% inhibition of [^3H]-spiperone binding).

Where a name gives a salt, the structure may show the parent alone.

T1 sequence (P08588 whole entry): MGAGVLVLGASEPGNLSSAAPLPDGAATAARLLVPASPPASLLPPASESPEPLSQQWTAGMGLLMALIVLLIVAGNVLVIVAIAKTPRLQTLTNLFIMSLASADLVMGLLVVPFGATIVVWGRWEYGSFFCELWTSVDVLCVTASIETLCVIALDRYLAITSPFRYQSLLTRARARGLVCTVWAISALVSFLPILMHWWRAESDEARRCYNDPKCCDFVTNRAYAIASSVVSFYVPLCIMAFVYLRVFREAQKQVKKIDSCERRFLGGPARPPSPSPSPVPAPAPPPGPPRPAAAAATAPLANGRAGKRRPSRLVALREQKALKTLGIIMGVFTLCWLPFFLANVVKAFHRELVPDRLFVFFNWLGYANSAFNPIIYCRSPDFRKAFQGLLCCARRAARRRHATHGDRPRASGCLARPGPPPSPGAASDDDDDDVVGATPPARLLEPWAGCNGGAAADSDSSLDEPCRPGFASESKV

Consider `Cn1nccc1-c1cccc(CCOCCC(=O)N(CCNCCc2ccc(O)c3c2OCC(=O)N3)C2CCCCC2)c1` [Example 03, N-Cyclohexyl-N-(2-(2-(5-hydroxy-3-oxo-3,4-dihydro-2H-benzo[b][1,4]oxazin-8-yl)ethylamino)ethyl)-3-(3-(1-methyl-1H-pyrazol-5-yl)phenethoxy)propanamide Trifluoroacetic Acid Salt], for which the IC50 is greater than 10 µM in test [1] and 2.51 µM in test [2].
`CCn1cc(-c2cccc(CCOCCC(=O)N(CCNCCc3ccc(O)c4c3OCC(=O)N4)C3CCCCC3)c2)nn1` [Example 04, N-Cyclohexyl-3-(3-(1-ethyl-1H-1,2,3-triazol-4-yl)phenethoxy)-N-(2-(2-(5-hydroxy-3-oxo-3,4-dihydro-2H-benzo[b][1,4]oxazin-8-yl)ethylamino)ethyl)propanamide Trifluoroacetic Acid Salt]: the IC50 in test [1] was greater than 10 µM; in test [2] it was 6.31 µM.
As for `Cn1cc(-c2cccc(CCOCCC(=O)N(CCNCCc3ccc(O)c4c3OCC(=O)N4)C3CCCCC3)c2)nn1` [Example 05, N-Cyclohexyl-N-(2-(2-(5-hydroxy-3-oxo-3,4-dihydro-2H-benzo[b][1,4]oxazin-8-yl)ethylamino)ethyl)-3-(3-(1-methyl-1H-1,2,3-triazol-4-yl)phenethoxy)propanamide Trifluoroacetic Acid Salt], the values for the IC50 in test [1] and in test [2] were greater than 7.94 µM and 3.16 µM, respectively.
For `Cn1nnc(-c2cccc(CCOCCC(=O)N(CCNCCc3ccc(O)c4c3OCC(=O)N4)C3CCCCC3)c2)n1` [Example 07, N-Cyclohexyl-N-(2-(2-(5-hydroxy-3-oxo-3,4-dihydro-2H-benzo[b][1,4]oxazin-8-yl)ethylamino)ethyl)-3-(3-(2-methyl-2H-tetrazol-5-yl)phenethoxy)propanamide Trifluoroacetic Acid Salt] the same measures were greater than 10 µM and 6.31 µM.
For `Cn1nnnc1-c1cccc(CCOCCC(=O)N(CCNCCc2ccc(O)c3c2OCC(=O)N3)C2CCCCC2)c1` [Example 08, N-Cyclohexyl-N-(2-(2-(5-hydroxy-3-oxo-3,4-dihydro-2H-benzo[b][1,4]oxazin-8-yl)ethylamino)ethyl)-3-(3-(1-methyl-1H-tetrazol-5-yl)phenethoxy)propanamide Trifluoroacetic Acid Salt], in that order: greater than 10 µM and 3.16 µM.
For `CC(C)[C@@H](C)N(CCNCCc1ccc(O)c2c1OCC(=O)N2)C(=O)CCOCCc1cccc(-c2cnn(C)c2)c1` [Example 09, (R)—N-(2-(2-(5-Hydroxy-3-oxo-3,4-dihydro-2H-benzo[b][1,4]oxazin-8-yl)ethylamino)ethyl)-3-(3-(1-methyl-1H-pyrazol-4-yl)phenethoxy)-N-(3-methylbutan-2-yl)propanamide Trifluoroacetic Acid Salt], in that order: greater than 10 µM and greater than 10 µM.
On to `O=C1COc2c(CCNCCN(C(=O)CCOCCc3cccc(-c4cnco4)c3)C3CCCCC3)ccc(O)c2N1` [Example 10, N-Cyclohexyl-N-(2-(2-(5-hydroxy-3-oxo-3,4-dihydro-2H-benzo[b][1,4]oxazin-8-yl)ethylamino)ethyl)-3-(3-(oxazol-5-yl)phenethoxy)propanamide Trifluoroacetic Acid Salt], for which the IC50 in test [1] is 6.31 µM; in test [2], 1 µM.
For `CC(C)n1cc(-c2cccc(CCOCCC(=O)N(CCNCCc3ccc(O)c4c3OCC(=O)N4)C3CCCCC3)c2)nn1` [Example 12, N-Cyclohexyl-N-(2-(2-(5-hydroxy-3-oxo-3,4-dihydro-2H-benzo[b][1,4]oxazin-8-yl)ethylamino)ethyl)-3-(3-(1-isopropyl-1H-1,2,3-triazol-4-yl)phenethoxy)propanamide Trifluoroacetic Acid Salt] the same measures were greater than 10 µM and 3.98 µM.
`Cn1cc(-c2cc(CCOCCC(=O)N(CCNCCc3ccc(O)c4c3OCC(=O)N4)C3CCCCC3)ccc2F)cn1` [Example 13, N-Cyclohexyl-3-(4-fluoro-3-(1-methyl-1H-pyrazol-4-yl)phenethoxy)-N-(2-(2-(5-hydroxy-3-oxo-3,4-dihydro-2H-benzo[b][1,4]oxazin-8-yl)ethylamino)ethyl)propanamide Trifluoroacetic Acid Salt]: the values for the IC50 in test [1] and in test [2] were 6.31 µM and 3.16 µM, respectively.
In the case of `O=C1COc2c(CCNCCN(C(=O)CCOCCc3cccc(-c4c[nH]nn4)c3)C3CCCCC3)ccc(O)c2N1` [Example 14, 3-(3-(1H-1,2,3-Triazol-4-yl)phenethoxy)-N-cyclohexyl-N-(2-(2-(5-hydroxy-3-oxo-3,4-dihydro-2H-benzo[b][1,4]oxazin-8-yl)ethylamino)ethyl)propanamide Trifluoroacetic Acid Salt], the IC50 was greater than 10 µM in test [1] and 2.51 µM in test [2].
For `O=C1COc2c(CCNCCN(C(=O)CCOCCc3cccc(-c4nn[nH]n4)c3)C3CCCCC3)ccc(O)c2N1` [Example 15, 3-(3-(2H-Tetrazol-5-yl)phenethoxy)-N-cyclohexyl-N-(2-(2-(5-hydroxy-3-oxo-3,4-dihydro-2H-benzo[b][1,4]oxazin-8-yl)ethylamino)ethyl)propanamide Trifluoroacetic Acid Salt] the same measures were greater than 10 µM and greater than 10 µM.
For `Cn1cc(-c2cccc(CCOCCC(=O)N(CCNCCc3ccc(O)c4c3OCC(=O)N4)C3CCCCC3)c2F)cn1` [Example 16, N-Cyclohexyl-3-(2-fluoro-3-(1-methyl-1H-pyrazol-4-yl)phenethoxy)-N-(2-(2-(5-hydroxy-3-oxo-3,4-dihydro-2H-benzo[b][1,4]oxazin-8-yl)ethylamino)ethyl)propanamide Trifluoroacetic Acid Salt], in that order: 6.31 µM and 2 µM.
For `Cn1cc(-c2cc(F)cc(CCOCCC(=O)N(CCNCCc3ccc(O)c4c3OCC(=O)N4)C3CCCCC3)c2)cn1` [Example 17, N-Cyclohexyl-3-(3-fluoro-5-(1-methyl-1H-pyrazol-4-yl)phenethoxy)-N-(2-(2-(5-hydroxy-3-oxo-3,4-dihydro-2H-benzo[b][1,4]oxazin-8-yl)ethylamino)ethyl)propanamide Trifluoroacetic Acid Salt], in that order: 5.01 µM and 2.51 µM.
Consider `O=C1COc2c(CCNCCN(C(=O)CCOCCc3cccc(-c4cnn(CC5CC5)c4)c3)C3CCCC3)ccc(O)c2N1` [Example 19, N-Cyclopentyl-3-(3-(1-(cyclopropylmethyl)-1H-pyrazol-4-yl)phenethoxy)-N-(2-(2-(5-hydroxy-3-oxo-3,4-dihydro-2H -benzo[b][1,4]oxazin-8-yl)ethylamino)ethyl)propanamide Trifluoroacetic Acid Salt], for which the IC50 in test [1] was 3.98 µM; in test [2], 2.51 µM.
For `CCC[C@@H](C)N(CCNCCc1ccc(O)c2c1OCC(=O)N2)C(=O)CCOCCc1cccc(-c2cnn(C(C)C)c2)c1` [Example 21, (R)—N-(2-(2-(5-Hydroxy-3-oxo-3,4-dihydro-2H-benzo[b][1,4]oxazin-8-yl)ethylamino)ethyl)-3-(3-(1-isopropyl-1H-pyrazol-4-yl)phenethoxy)-N-(pentan-2-yl)propanamide Trifluoroacetic Acid Salt] the same measures were 6.31 µM and 3.16 µM.
For `CC(C)n1cc(-c2cccc(CCOCCC(=O)N(CCNCCc3ccc(O)c4c3OCC(=O)N4)C3CCCC3)c2)cn1` [Example 22, N-Cyclopentyl-N-(2-(2-(5-hydroxy-3-oxo-3,4-dihydro-2H-benzo[b][1,4]oxazin-8-yl)ethylamino)ethyl)-3-(3-(1-isopropyl-1H-pyrazol-4-yl)phenethoxy)propanamide Trifluoroacetic Acid Salt] the same measures were 5.01 µM and 2.51 µM.
